Measurements as given in US5852050A, “Preparation for treating wounds or hemorrhoids” (Kaken Pharmaceutical Co., Ltd., priority 1992, dated 1998).
Entries after “also recorded” stand apart in the source; their conditions may differ. Where two headings read alike, the source gives them in different places.

Tests used:
[1] = background statement; cited from earlier work
[2] = test system: full-thickness skin layer wounds of diabetic mice; assay: Effect of Beraprost on Wound Healing in full-thickness skin wound model of diabetic mice; type: in vivo, hereditary diabetic mice (C57BL/KsJ-dbm (db+/db+))
Description: Effect of Beraprost on Wound Healing in Full Sickness Wound Model of Diabetic Mice Whose Full-Thickness Skin Layer was Ablated
Hair on the backs of hereditary diabetic mice (C57BL/KsJ-dbm (db+/db+), male, 11 to 12 weeks of age, 6 mice per group) was removed one day before a test. The back portions of the mice were cleaned with ethanol under ether anesthesia, and circular full-thickness skin layer wounds (2 cm^2) were formed in the middle portions of the backs with surgical curved scissors.
Beraprost (sodium salt) as a test medicament was prepared in the form of a saline solution containing 20 % ethanol, and the saline solution was dropwise administered at a dosage of 5 μg/10 μl/cm^2 ×14 times (once per day for 14 days). As control, a solution (vehicle) containing no medicament was administered.
For evaluating the effects of the test medicament, the wound surfaces were traced on plastic sheets at intervals of 2-3 days, and measured for wound areas with a planimeter. The ratios of the wound areas to the area immediately after the skin ablation were calculated, and the numbers of days required for the visual completion of epidermization (complete healing) from the skin-removed wounds were used as indices.
Further, the degrees of the vascularization and granulation of wound surfaces were visually scored, and changes with the passage of days and side effects were observed.
Further, an exudate was collected 9 days after the skin ablation, and a mixture of the exudate with a saline solution used for washing the wound was measured for a leucocyte number through a microscope.
Further, the mice were sacrificed by ether anesthesia on 31th day, and skins of the wound portions were cut off and fixed with a 10% neutral buffer formalin solution. Then, paraffin sections, Hematoxyrin-Eosin-stained specimens and Masson trichrome-stained specimens were prepared according to conventional methods and observed through a microscope.

[3] = test system: Experimental Hemorrhoids Model in Rats; assay: Prevention effects on experimental hemorrhoids model in rats (croton oil); type: in vivo, Male SLC: Wistar rats; set-up: Mucosa Bleeding, Necrosis, Peeling (total length from anus transition portion) / Mucosa Red thrombus (number of thrombus) / Mucosa Epithelium Activation, number of rats / Mucosa Congestion, number of rats / Submucosa Swelling, number of rats / Submucosa Inflammatory cell infiltration, number of rats: dose or concentration left out as unconfirmed; conditions: for Submucosa Inflammatory cell infiltration, number of rats / Mucosa Congestion, number of rats / Mucosa Epithelium Activation, number of rats / Submucosa Swelling, number of rats: 8 rats
Description: (§1) Prevention and Therapy Effects on Experimental Hemorrhoids Model in Rats
(§2) A mixture of 1 volume of distilled water, 4 volumes of pyridine, 5 volumes of ethyl ether and 10 volumes of a 3% croton oil ethyl ether solution was used. The distilled water and a small amount of ethyl ether were added to, and blended with, the pyridine, and the 3% croton oil ethyl ether solution was added. Further, the remaining ethyl ether was added, and the mixture was vigorously stirred to prepare an inflammation-inducing agent containing croton oil. This solution was prepared just before the test, and stored with ice cooling during the test.
(§3) Beraprost (sodium salt) was dissolved in distilled water to prepare a solution for oral administration and dissolved in a saline solution to prepare a solution for intrarectal administration.
(§4) In the test of effects on the prevention of hemorrhoids, the dosage for oral administration was 0.1, 0.3 or 1.0 mg/kg, and the dosage for intrarectal administration was 0.01, 0.03, 0.1, 0.3 or 1.0 mg/kg. In the tests of effects on the therapy of hemorrhoids, the dosage for oral administration was 0.1 mg/kg, and the dosage for intrarectal administration was 0.03 mg/kg. Further, the dosage of the solution for oral administration was 10 ml/kg, and the dosage of the solution for intrarectal administration was 100 μl/kg.
(§5) Seven to 8 rats were used as one group.
In the test of prevention of hemorrhoids, beraprost was orally or intrarectally administered, and 30 minutes after the administration, 100 μl of the inflammation-inducing agent containing croton oil was infiltrated into the tampon of a swab and the tampon was inserted into the anus of each rat under no anesthesia for 10 seconds to induce inflammation.
Three hours after the induction of inflammation, the rats were sacrificed by bleeding under anesthesia with ethyl ether, and a rectum-anus portion was taken from each rat such that it was exactly 20 mm long from a circular hairline on the anus epithelium, and measured for a weight.
Further, in the intrarectally administered group, the isolated rectum-anus portion was fixed with a 10% neutral buffer formalin solution, and paraffin sections, Hematoxyrin-Eosin-stained specimens and Phosphotungstic acid hematoxyin-stained specimens were prepared according to conventional methods. Then, these were observed and their photographs were taken through an optical microscope The histological data obtained by the intrarectal administration of beraprost were examined.
(§6) In addition, distilled water alone was administered to the control group for oral administration, and a saline solution (vehicle) alone was administered to the control group for intrarectal administration. Further, for comparison, a non-treated group which was neither treated with the inflammation-inducing agent containing croton oil and nor treated with a medicament and which was neither administered with distilled water nor administered with a saline solution was tested in the same manner.
(§7) For the effect of beraprost on the weight of the rectum-anus portion, the difference from the control group was determined according to Student's t test, and for the histological data, the difference from the control group was determined according to Kruskal-Wallis H test. Further, the inhibition ratio was calculated on the basis of the rectum-anus portion average weight of each group by the following equation.
(§8) Inhibition ratio (%)={1-[medicament-administered group-non-treated
(§9) group)/(control group-non-treated group)]}×100

[4] = Chemical stability; type: physicochemical; conditions: beraprost or a salt thereof, powder
[5] = test system: Experimental Hemorrhoids Model in Rats; assay: Therapy effects on experimental hemorrhoids model in rats (croton oil); type: in vivo, Male SLC: Wistar rats; conditions: for Wet weight of anus-rectum: twice a day for 4 days, average ± standard error, * P < 0.05 vs control
Description: as §1, §2, §3, §4, §5
In the test of effects on the therapy of hemorrhoids, inflammation was induced with an inflammation-inducing agent containing croton oil in the same manner as in the test of effects on the prevention. Beraprost was administered twice a day in the morning and evening for 4 days, and the administration was started one day after the induction of inflammation. Rectum-anus portions isolated after 5 days in the same manner as in the test of effects on prevention were measured for a weight.
as §6, §7, §8, §9

[6] = Solubility in water; type: physicochemical; conditions: beraprost or a salt thereof, powder
[7] = test system: platelet aggregation; conditions: background statement; cited from earlier work
[8] = 9 days after the administration, as compared with vehicle
[9] = 9 days after the administration, mean ± S.E., ** P < 0.01 vs vehicle
[10] = score + (Low degree), 31 days after the skin ablation
[11] = score + (Low degree), 31 days after the skin ablation, distribution * P < 0.05 (H test)
[12] = score ++ (Intermediate degree), 31 days after the skin ablation
[13] = score +++ (High degree), 31 days after the skin ablation
[14] = score - (Not affected), 31 days after the skin ablation
[15] = intrarectal 0.03 mg/kg, on average, P<0.01
[16] = intrarectal, average ± standard error, ** P < 0.01
[17] = score + (Low degree), intrarectal, distribution XX P < 0.01
[18] = score ++ (Intermediate degree), intrarectal

For CC#CCC(C)[C@H](O)/C=C/[C@@H]1[C@H]2c3cccc(CCCC(=O)O)c3O[C@H]2C[C@H]1O (relative stereo) [Beraprost, (±)-(1R*, 2R*,3aS*,8bS*)-2,3,3a,8b-tetrahydro-2-hydroxy-1-[(E)-(3S*)-3-hydroxy-4-methyl-1-octen-6-ynyl]-1H-cyclopenta[b]benzofuran-5-butyric acid], the chemical stability [1] is listed as “chemically stable”, the “change ratio of wound area” value ([2]; 3 days after administration, 5 μg/10 μl/cm^2 once per day for 14 days, mean ± S.E.) is listed as 95.7 ± 2.50% and the “amount of exudate (in words)” value [2, 8] is listed as “clear increase”. The “number of infiltrated leucocyte (in words)” value [2, 8] was “clear increase”, the Amount of exudate [2, 9] was 36.6 ± 10.73 µL and the “Number of infiltrated leucocyte” value [2, 9] was 110.1 ± 31.66 × 10^4 cells/site. For the same compound, the “change ratio of wound area” value ([2]; 10 days after administration, mean ± S.E., ** P < 0.01 vs vehicle) was 24.4%, the “change ratio of wound area” value ([2]; 21 days after administration, mean ± S.E., * P < 0.05 vs vehicle) was 0.1% and the “histology of skin ablation portions (in words)” value ([2]; 31 days after the skin ablation) was “the whole areas were covered with regenerated skin and the exudate of the dermis disappeared; also recorded: the tissue showed transition to fibrosis, no formation of abnormal tissue or no scar of excess formation was shown, and normal wound healing was shown”. The “completion of healing first observed” value ([2]; day after administration) was “from the twenty-first day after administration”, the “wound surfaces (decrease, in words)” value ([2]; from the sixth day after administration, as compared with vehicle) was “remarkable decreases” and the “Days until complete healing” value ([2]; mean ± S.E., ** P < 0.01 vs vehicle) was 22 days. For the same compound, the systemic side effects ([2]; mouse, in vivo) was “no systemic side effects”, the “weight difference from vehicle-administered group” value ([2]; mouse, in vivo) was “no weight difference was observed” and the “Dermis, Subcutaneous tissue Exudate, number of cases” value [2, 10] was 1 cases in six mice. The “Epidermis Hypertrophy, number of cases” value [2, 10] was 1 cases in six mice, the “Epidermis Regeneration, number of cases” value [2, 10] was 0 cases in six mice and the “Dermis, Subcutaneous tissue Fibrosis, number of cases” value (from here on “Dermis, Subcutaneous tissue Fibrosis”) [2, 11] was 0 cases in six mice. For the same compound, the “Dermis, Subcutaneous tissue Granulation, number of cases” value (“Dermis, Subcutaneous tissue Granulation” for short) [2, 11] was 2 cases in six mice, the “Dermis, Subcutaneous tissue Fibrosis” value [2, 12] was 2 cases in six mice and the “Dermis, Subcutaneous tissue Granulation” value [2, 12] was 0 cases in six mice. The “Epidermis Regeneration, number of cases” value ([2]; score ++ (Intermediate degree), 31 days after the skin ablation, distribution * P < 0.05 (H test)) was 0 cases in six mice, the “Dermis, Subcutaneous tissue Fibrosis” value [2, 13] was 4 cases in six mice and the “Epidermis Regeneration, number of cases” value [2, 13] was 6 cases in six mice. The “Dermis, Subcutaneous tissue Fibrosis” value [2, 14] was 0 cases in six mice, the “Dermis, Subcutaneous tissue Granulation” value [2, 14] was 4 cases in six mice and the “Epidermis Regeneration, number of cases” value [2, 14] was 0 cases in six mice. The “Dermis, Subcutaneous tissue Exudate, number of cases” value ([2]; score - (Not affected), 31 days after the skin ablation, distribution * P < 0.05 (H test)) was 5 cases in six mice, the “vascularization and granulation on the wound surfaces” value ([2]; visual, as compared with vehicle-administered group) was “clear expeditious progress in the vascularization and granulation” and the “dosage group with the largest effect” value ([3]; intrarectal) was 0.03 mg/kg. For the same compound, the Inhibition ratio ([3]; intrarectal 0.01 mg/kg) was 22.9%, the “Wet weight of anus-rectum” value ([3]; intrarectal 0.01 mg/kg, average ± standard error, ** P < 0.01 vs control) was 303.3 ± 6.25 mg and the Inhibition ratio ([3]; intrarectal 0.03 mg/kg) was 35.8%. For the same compound, the “histology of rectum (in words)” value ([3]; intrarectal 0.03 mg/kg) was “the degrees of swelling and inflammatory cell infiltration lowered; also recorded: the mucosal epithelial cell nucleus was more densely stained than in a normal portion, and cells which appeared to be in an active state were distinctly observed; also recorded: the degree of congestion was lowered”, the “Wet weight of anus-rectum” value ([3]; intrarectal 0.03 mg/kg, average ± standard error, ** P < 0.01 vs control) was 277.3 ± 12.88 mg and the “number of blood vessels having red thrombus” value [3, 15] was 6.8±2.35. The “range of bleeding, necrosis and peeling of mucosal layer” value [3, 15] was 5.4±0.19 mm, the Inhibition ratio ([3]; intrarectal 0.1 mg/kg) was 30.1% and the “Wet weight of anus-rectum” value ([3]; intrarectal 0.1 mg/kg, average ± standard error, ** P < 0.01 vs control) was 288.7 ± 5.63 mg. For the same compound, the Inhibition ratio ([3]; intrarectal 0.3 mg/kg) was 24.6%, the “Wet weight of anus-rectum” value ([3]; intrarectal 0.3 mg/kg, average ± standard error, ** P < 0.01 vs control) was 299.7 ± 9.74 mg and the Inhibition ratio ([3]; intrarectal 1.0 mg/kg) was 20.5%. For the same compound, the “Wet weight of anus-rectum” value ([3]; intrarectal 1.0 mg/kg, average ± standard error, * P < 0.05 vs control) was 308.0 ± 14.51 mg, the “inhibition of rectum-anus weight increase (in words)” value ([3]; intrarectal 0.01 to 1.0 mg/kg, P<0.05 to 0.01) was “significant inhibition activity” and the “Mucosa Bleeding, Necrosis, Peeling (total length from anus transition portion)” value [3, 16] was 5.4 ± 0.19 mm. For the same compound, the “Mucosa Red thrombus (number of thrombus)” value [3, 16] was 6.8 ± 2.35, the Inhibition ratio ([3]; oral 0.1 mg/kg) was 24.5% and the “Wet weight of anus-rectum” value ([3]; oral 0.1 mg/kg, average ± standard error, ** P < 0.01 vs control) was 307.1 ± 5.87 mg. The Inhibition ratio ([3]; oral 0.3 mg/kg) was 32.3%, the “Wet weight of anus-rectum” value ([3]; oral 0.3 mg/kg, average ± standard error, ** P < 0.01 vs control) was 292.5 ± 11.28 mg and the Inhibition ratio ([3]; oral 1.0 mg/kg) was 39.3%. For the same compound, the “Wet weight of anus-rectum” value ([3]; oral 1.0 mg/kg, average ± standard error, ** P < 0.01 vs control) was 279.3 ± 8.32 mg, the “swelling inhibition activity (in words)” value ([3]; oral 0.1 to 1.0 mg/kg, depending upon the dosage) was “clear swelling inhibition activity depending upon the dosage” and the “swelling in rectum-anus portion and histopathological data (overall, in words)” value ([3]; orally and intrarectally administered) was “clearly inhibits the swelling; also recorded: remarkable effects in histopathological data”. The “Submucosa Inflammatory cell infiltration, number of rats” value ([3]; score + (Low degree), intrarectal, distribution X P < 0.05) was 5, the “Mucosa Congestion, number of rats” value [3, 17] was 8 and the “Mucosa Epithelium Activation, number of rats” value (from here on “Mucosa Epithelium Activation”) [3, 17] was 2. The “Mucosa Congestion, number of rats” value [3, 18] was 0, the “Mucosa Epithelium Activation” value [3, 18] was 6 and the “Submucosa Inflammatory cell infiltration, number of rats” value [3, 18] was 3. For the same compound, the “Submucosa Swelling, number of rats” value ([3]; score ++ (Intermediate degree), intrarectal, distribution XX P < 0.01) was 8, the “Submucosa Swelling, number of rats” value ([3]; score +++ (High degree), intrarectal) was 0 and the “Mucosa Epithelium Activation” value ([3]; score - (No change), intrarectal) was 0. The chemical stability [4] was “chemically stable”, the Inhibition ratio ([5]; i.r. 0.03 mg/kg) was 31.4% and the “Wet weight of anus-rectum” value ([5]; i.r. 0.03 mg/kg) was 368.5 ± 27.35 mg. The “activity for inhibiting the swelling (in words)” value ([5]; oral 0.1 mg/kg and intrarectal 0.03 mg/kg, P<0.05) was “significant (P<0.05) activity for inhibiting the swelling”, the Inhibition ratio ([5]; p.o. 0.1 mg/kg) was 27.1% and the “Wet weight of anus-rectum” value ([5]; p.o. 0.1 mg/kg) was 380.7 ± 23.74 mg. For the same compound, the solubility in water [6] was “soluble in water”.

In the case of CCCCC[C@H](O)/C=C/[C@H]1[C@H](O)CC(=O)[C@@H]1CCCCCCC(=O)O [PGE1, prostaglandin E1], the “inhibition activity of platelet aggregation” value [7] is listed as “high inhibition activity of platelet aggregation”.

In the case of CCCCC[C@H](O)/C=C/[C@@H]1[C@H]2C/C(=C/CCCC(=O)O)O[C@H]2C[C@H]1O [PGI2, Prostaglandin I2], the chemical stability [1] is given as “chemically unstable” and the “inhibition activity of platelet aggregation” value [7] is given as “high inhibition activity of platelet aggregation”.
